Biological target: T1, human RXFP1 (Homo sapiens, UniProt Q9HBX9)
T1 construct: expressed in transfected cells
T1 sequence (Q9HBX9 1-757): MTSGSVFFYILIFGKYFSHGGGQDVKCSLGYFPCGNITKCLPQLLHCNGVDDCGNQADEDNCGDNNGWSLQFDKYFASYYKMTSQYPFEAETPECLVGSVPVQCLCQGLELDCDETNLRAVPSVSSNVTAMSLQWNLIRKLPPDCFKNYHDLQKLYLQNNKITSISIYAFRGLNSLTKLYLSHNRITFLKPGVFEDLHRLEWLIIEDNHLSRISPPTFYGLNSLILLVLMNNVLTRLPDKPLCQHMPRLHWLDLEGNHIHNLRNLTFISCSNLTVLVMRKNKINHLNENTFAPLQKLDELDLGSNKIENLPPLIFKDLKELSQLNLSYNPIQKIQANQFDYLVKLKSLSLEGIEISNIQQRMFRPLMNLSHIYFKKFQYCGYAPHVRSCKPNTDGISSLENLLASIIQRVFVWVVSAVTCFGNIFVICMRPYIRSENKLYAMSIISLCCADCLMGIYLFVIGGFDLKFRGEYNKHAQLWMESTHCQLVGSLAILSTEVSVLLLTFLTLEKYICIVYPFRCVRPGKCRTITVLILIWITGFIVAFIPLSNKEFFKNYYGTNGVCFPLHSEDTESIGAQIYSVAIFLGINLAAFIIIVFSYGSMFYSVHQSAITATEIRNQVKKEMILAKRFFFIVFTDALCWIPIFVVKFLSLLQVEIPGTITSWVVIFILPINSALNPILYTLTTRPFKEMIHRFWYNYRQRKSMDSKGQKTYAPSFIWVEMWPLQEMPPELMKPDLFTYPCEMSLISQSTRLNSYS
Assay: hRXFP1 HEK293 cAMP assay (HTRF)
Assay type: cell-based
Details: HEK293 cells stably expressing human RXFP1; 30 min at rt; intracellular cAMP by HTRF
How it was run: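 HEK293 cells stably expressing human RXFP1 treated 30 min at rt with compound (0.010 nM to 50 μM, 2% DMSO) in HBSS/HEPES buffer with 0.5 mM IBMX. Intracellular cAMP measured by HTRF (665/590 nm ratio) against a cAMP standard curve; potency fitted by 4-parameter logistic.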

| SMILES | EC50 [nM] |
| --- | --- |
| COc1ccc(N2CCCC(C(=O)NCCO)C2)cc1C(=O)Nc1c(C(=O)Nc2ccc(F)c(C(F)(F)F)c2)sc2cc(C(F)(F)F)ccc12 (single isomer, unassigned) [Example 230, 1-(3-((2-((4-fluoro-3-(trifluoromethyl)phenyl)carbamoyl)-6-(trifluoromethyl)benzo[b]thiophen-3-yl)carbamoyl)-4-methoxyphenyl)-N-(2-hydroxyethyl) piperidine-3-carboxamide] | 1400 |
| COc1ccc(N2CCCC(C(=O)NCCO)C2)cc1C(=O)Nc1c(C(=O)Nc2ccc(F)c(C(F)(F)F)c2)sc2cc(C(F)(F)F)ccc12 (single isomer, unassigned) [Example 231, 1-(3-((2-((4-fluoro-3-(trifluoromethyl)phenyl)carbamoyl)-6-(trifluoromethyl)benzo[b]thiophen-3-yl)carbamoyl)-4-methoxyphenyl)-N-(2-hydroxyethyl) piperidine-3-carboxamide] | 1680 |
| COc1ccc(C2=NOC3CN(C(=O)CO)CC23)cc1C(=O)Nc1c(C(=O)Nc2ccc(F)c(C(F)(F)F)c2)sc2cc(C(F)(F)F)ccc12 (single isomer, unassigned) [Example 242, N-(4-fluoro-3-(trifluoromethyl)phenyl)-3-(5-(5-(2-hydroxyacetyl)-3a,5,6,6a-tetrahydro-4H-pyrrolo[3,4-d]isoxazol-3-yl)-2-methoxy-benzamido)-6-(trifluoromethyl) benzo[b] thiophene-2-carboxamide] | 9.8 |
| COc1ccc(C2=NOC3CN(C(=O)CO)CC23)cc1C(=O)Nc1c(C(=O)Nc2ccc(F)c(C(F)(F)F)c2)sc2cc(C(F)(F)F)ccc12 (single isomer, unassigned) [Example 243, N-(4-fluoro-3-(trifluoromethyl)phenyl)-3-(5-(5-(2-hydroxyacetyl)-3a,5,6,6a-tetrahydro-4H-pyrrolo[3,4-d]isoxazol-3-yl)-2-methoxy-benzamido)-6-(trifluoromethyl) benzo[b] thiophene-2-carboxamide] | 1050 |
| COc1ccc(C2=NOC3CN(C(=O)OC(C)(C)C)CC23)cc1C(=O)Nc1c(C(=O)Nc2ccc(F)c(C(F)(F)F)c2)sc2cc(C(F)(F)F)ccc12 (single isomer, unassigned) [Example 244, tert-butyl 3-(3-((2-((4-fluoro-3-(trifluoromethyl)phenyl)carbamoyl)-6-(trifluoromethyl)benzo[b]thiophen-3-yl)carbamoyl)-4-methoxyphenyl)-3a,4,6,6a-tetrahydro-5H-pyrrolo[3,4-d]isoxazole-5-carboxylate] | 360 |
| COc1ccc(C2=NOC3CN(C(=O)OC(C)(C)C)CC23)cc1C(=O)Nc1c(C(=O)Nc2ccc(F)c(C(F)(F)F)c2)sc2cc(C(F)(F)F)ccc12 (single isomer, unassigned) [Example 245, tert-butyl 3-(3-((2-((4-fluoro-3-(trifluoromethyl)phenyl)carbamoyl)-6-(trifluoromethyl)benzo[b]thiophen-3-yl)carbamoyl)-4-methoxyphenyl)-3a,4,6,6a-tetrahydro-5H-pyrrolo[3,4-d]isoxazole-5-carboxylate] | 463 |
| COc1ccc(C2=NOC3CN(C(=O)CO)CC23)cc1C(=O)Nc1c(C(=O)Nc2ccc(F)c(C(F)(F)F)c2)sc2ccccc12 (single isomer, unassigned) [Example 248, N-[4-fluoro-3-(trifluoromethyl)phenyl]-3-{5-[5-(2-hydroxyacetyl) 3aH,4H,5H,6H, 6aH-pyrrolo[3,4-d][1,2]oxazol-3-yl]-2-methoxy-benzamido}-1-benzothiophene-2-carboxamide] | 545 |
| COc1ccc(C2=NOC(CO)C2)cc1C(=O)Nc1c(C(=O)Nc2ccc(F)c(C(F)(F)F)c2)sc2cc(C(F)(F)F)ccc12 (single isomer, unassigned) [Example 249, N-(4-fluoro-3-(trifluoromethyl)phenyl)-3-(5-(5-(hydroxymethyl)-4,5-dihydroisoxazol-3-yl)-2-methoxy-benzamido)-6-(trifluoromethyl) benzo[b] thiophene-2-carboxamide] | 3700 |
| COc1ccc(C2=NOC(CO)C2)cc1C(=O)Nc1c(C(=O)Nc2ccc(F)c(C(F)(F)F)c2)sc2cc(C(F)(F)F)ccc12 (single isomer, unassigned) [Example 250, N-(4-fluoro-3-(trifluoromethyl)phenyl)-3-(5-(5-(hydroxymethyl)-4,5-dihydroisoxazol-3-yl)-2-methoxy-benzamido)-6-(trifluoromethyl) benzo[b] thiophene-2-carboxamide] | 280 |
| COc1ccc(C2=NOC(C)(CO)C2)cc1C(=O)Nc1c(C(=O)Nc2ccc(F)c(C(F)(F)F)c2)sc2cc(C(F)(F)F)ccc12 (single isomer, unassigned) [Example 253, N-(4-fluoro-3-(trifluoromethyl)phenyl)-3-(5-(5-(hydroxymethyl)-5-methyl-4,5-dihydroisoxazol-3-yl)-2-methoxy-benzamido)-6-(trifluoromethyl) benzo[b] thiophene-2-carboxamide] | 192 |
| COc1ccc(C2=NOC(C)(CO)C2)cc1C(=O)Nc1c(C(=O)Nc2ccc(F)c(C(F)(F)F)c2)sc2cc(C(F)(F)F)ccc12 (single isomer, unassigned) [Example 254, N-(4-fluoro-3-(trifluoromethyl)phenyl)-3-(5-(5-(hydroxymethyl)-5-methyl-4,5-dihydroisoxazol-3-yl)-2-methoxy-benzamido)-6-(trifluoromethyl) benzo[b] thiophene-2-carboxamide] | 1020 |
| COc1ccc(C2=NOC3COCC23)cc1C(=O)Nc1c(C(=O)Nc2ccc(F)c(C(F)(F)F)c2)sc2cc(C(F)(F)F)ccc12 (single isomer, unassigned) [Example 255, 3-(5-{3aH,4H,6H,6aH-furo[3,4-d][1,2]oxazol-3-yl}-2-methoxy-benzamido)-N-[4-fluoro-3-(trifluoromethyl)phenyl]-6-(trifluoromethyl)-1-benzothiophene-2-carboxamide] | 498 |
| COc1ccc(C2=NOC(C(C)(C)O)C2)cc1C(=O)Nc1c(C(=O)Nc2ccc(F)c(C(F)(F)F)c2)sc2cc(C(F)(F)F)ccc12 (single isomer, unassigned) [Example 257, N-[4-fluoro-3-(trifluoromethyl)phenyl]-3-{5-[5-(2-hydroxypropan-2-yl)-4,5-dihydro-1,2-oxazol-3-yl]-2-methoxy-benzamido}-6-(trifluoromethyl)-1-benzothiophene-2-carboxamide] | 166 |
| COc1ccc(C2=NOC(C(C)(C)O)C2)cc1C(=O)Nc1c(C(=O)Nc2ccc(F)c(C(F)(F)F)c2)sc2cc(C(F)(F)F)ccc12 (single isomer, unassigned) [Example 258, N-[4-fluoro-3-(trifluoromethyl)phenyl]-3-{5-[5-(2-hydroxypropan-2-yl)-4,5-dihydro-1,2-oxazol-3-yl]-2-methoxy-benzamido}-6-(trifluoromethyl)-1-benzothiophene-2-carboxamide] | 673 |
| COc1ccc(C2=NOC3CC(N)CC23)cc1C(=O)Nc1c(C(=O)Nc2ccc(F)c(C(F)(F)F)c2)sc2cc(C(F)(F)F)ccc12 (single isomer, unassigned) [Example 259, 3-(5-{5-amino-3aH,4H,5H,6H, 6aH-cyclopenta[d] [1,2]oxazol-3-yl}-2-methoxy-benzamido)-N-[4-fluoro-3-(trifluoromethyl)phenyl]-6-(trifluoromethyl)-1-benzothiophene-2-carboxamide] | 364 |
| COc1ccc(C2=NOC3CC(NC(=O)C(C)(C)O)CC23)cc1C(=O)Nc1c(C(=O)Nc2ccc(F)c(C(F)(F)F)c2)sc2cc(C(F)(F)F)ccc12 (single isomer, unassigned) [Example 262, N-[4-fluoro-3-(trifluoromethyl)phenyl]-3-{5-[5-(2-hydroxy-2-methyl-propanamido)-3aH,4H,5H,6H, 6aH-cyclopenta[d] [1,2]oxazol-3-yl]-2-methoxy-benzamido}-6-(trifluoromethyl)-1-benzothiophene-2-carboxamide] | 723 |
| COc1ccc(C2=NOC3CC(NC(=O)CO)CC23)cc1C(=O)Nc1c(C(=O)Nc2ccc(F)c(C(F)(F)F)c2)sc2cc(C(F)(F)F)ccc12 (single isomer, unassigned) [Example 263, N-[4-fluoro-3-(trifluoromethyl)phenyl]-3-{5-[5-(2-hydroxyacetamido)-3aH,4H,5H,6H, 6aH-cyclopenta[d] [1,2]oxazol-3-yl]-2-methoxy-benzamido}-6-(trifluoromethyl)-1-benzothiophene-2-carboxamide] | 122 |
| COc1ccc(C2=NOC3CC(NC(=O)CO)CC23)cc1C(=O)Nc1c(C(=O)Nc2ccc(F)c(C(F)(F)F)c2)sc2cc(C(F)(F)F)ccc12 (single isomer, unassigned) [Example 264, N-[4-fluoro-3-(trifluoromethyl)phenyl]-3-{5-[5-(2-hydroxyacetamido)-3aH,4H,5H,6H, 6aH-cyclopenta[d] [1,2]oxazol-3-yl]-2-methoxy-benzamido}-6-(trifluoromethyl)-1-benzothiophene-2-carboxamide] | 3140 |

Source: patent US20260265233A1, “BENZOTHIOPHENE DERIVATIVES AS RXFP1 AGONISTS” (BRISTOL-MYERS SQUIBB COMPANY, priority 2021, published 2026)
